Data taken from US12139499B2, “Heteroaryl compounds for treating Huntington's disease” (PTC THERAPEUTICS, INC., priority 2018, dated 2024).

Tested on: Endogenous Huntingtin Protein
Test: Endogenous Huntingtin Protein Assay (ELISA-based MSD electrochemiluminescence)
Format: cell-based
Details: Table 1
How it was run: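 Huntingtin was captured overnight at 4 °C on plates coated with 1 μg/mL MW1 (polyQ-expanded) or MAB2166 antibody and BSA-blocked. Detection used a rabbit monoclonal and then a SULFO-TAG goat anti-rabbit antibody (0.25 μg/mL, 1 h each, room temperature). Signal was read by electrochemiluminescence.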

| SMILES | IC50 [nM] |
| --- | --- |
| Cc1nc2ccc(-c3ccc4nc(C5CCNCC5)sc4c3)cc2o1 [Compound 112, 2-methyl-6-[2-(piperidin-4-yl)-1,3-benzothiazol-6-yl]-1,3-benzoxazole] | 100 to 500 |
| Cc1cn2cc(-c3ccc4nc(C5CCNCC5)sc4c3)cc(F)c2n1 [Compound 113, 6-(8-fluoro-2-methylimidazo[1,2-a]pyridin-6-yl)-2-(piperidin-4-yl)-1,3-benzothiazole] | ≤ 100 |
| Cc1cn2cc(-c3ccc4nc(C5CCNCC5)sc4c3)cc(C)c2n1 [Compound 114, 6-(2,8-dimethylimidazo[1,2-a]pyridin-6-yl)-2-(piperidin-4-yl)-1,3-benzothiazole] | ≤ 100 |
| Cn1cc2cc(-c3ccc4nc(C5CCNC(C)(C)C5)sc4c3)ccc2n1 (stereo not shown) [Compound 115, 2-(2,2-dimethylpiperidin-4-yl)-6-(2-methyl-2H-indazol-5-yl)-1,3-benzothiazole] | 500 to 1000 |
| Cc1cn2cc(-c3cc4sc(N(C)C5CC(C)(C)NC(C)(C)C5)nc4cn3)cc(C(F)(F)F)c2n1 [Compound 116, N-methyl-6-[2-methyl-8-(trifluoromethyl)imidazo[1,2-a]pyridin-6-yl]-N-(2,2,6,6-tetramethylpiperidin-4-yl)[1,3]thiazolo[4,5-c]pyridin-2-amine] | 100 to 500 |
| CN(c1nc2cnc(-c3cc(C#N)c4nn(C)cc4c3)cc2s1)C1CC(C)(C)NC(C)(C)C1 [Compound 117, 2-methyl-5-{2-[methyl(2,2,6,6-tetramethylpiperidin-4-yl)amino][1,3]thiazolo[4,5-c]pyridin-6-yl}-2H-indazole-7-carbonitrile] | ≤ 100 |
| Cc1cc(-c2cc3sc(N(C)C4CC(C)(C)NC(C)(C)C4)nc3nn2)cc2cn(C)nc12 [Compound 118, 3-(2,7-dimethyl-2H-indazol-5-yl)-N-methyl-N-(2,2,6,6-tetramethylpiperidin-4-yl)[1,3]thiazolo[4,5-c]pyridazin-6-amine] | 100 to 500 |
| CN(c1nc2nnc(-c3ccc(-c4cn[nH]c4)cc3O)cc2s1)C1CC(C)(C)NC(C)(C)C1 [Compound 119, 2-{6-[methyl(2,2,6,6-tetramethylpiperidin-4-yl)amino][1,3]thiazolo[4,5-c]pyridazin-3-yl}-5-(1H-pyrazol-4-yl)phenol] | ≤ 100 |
| Cc1cn2nc(-c3cc(F)c4nc(N5CCNCC5)sc4c3)cc(C)c2n1 [Compound 120, 6-[4-fluoro-2-(piperazin-1-yl)-1,3-benzothiazol-6-yl]-2,8-dimethylimidazo[1,2-b]pyridazine] | ≤ 100 |
| Cc1cn2nc(-c3cc(F)c4nc(N5CCCNCC5)sc4c3)cc(C)c2n1 [Compound 121, 6-[2-(1,4-diazepan-1-yl)-4-fluoro-1,3-benzothiazol-6-yl]-2,8-dimethylimidazo[1,2-b]pyridazine] | ≤ 100 |
| Cc1cc(-c2ncc3nc(N(C)C4CC(C)(C)NC(C)(C)C4)sc3n2)cc2cn(C)nc12 [Compound 122, 5-(2,7-dimethyl-2H-indazol-5-yl)-N-methyl-N-(2,2,6,6-tetramethylpiperidin-4-yl)[1,3]thiazolo[5,4-d]pyrimidin-2-amine] | 100 to 500 |
| CN(c1nc2cnc(-c3cc(C#N)c4nn(C)cc4c3)nc2s1)C1CC(C)(C)NC(C)(C)C1 [Compound 123, 2-methyl-5-{2-[methyl(2,2,6,6-tetramethylpiperidin-4-yl)amino][1,3]thiazolo[5,4-d]pyrimidin-5-yl}-2H-indazole-7-carbonitrile] | ≤ 100 |
| CN(c1nc2cnc(-c3cc(F)c4nn(C)cc4c3)nc2s1)C1CC(C)(C)NC(C)(C)C1 [Compound 124, 5-(7-fluoro-2-methyl-2H-indazol-5-yl)-N-methyl-N-(2,2,6,6-tetramethylpiperidin-4-yl)[1,3]thiazolo[5,4-d]pyrimidin-2-amine] | ≤ 100 |
| Cc1cn2nc(-c3cc(F)c4nc(N5CCNC6(CC6)C5)sc4c3)cc(C)c2n1 [Compound 125, 6-[2-(4,7-diazaspiro[2.5]oct-7-yl)-4-fluoro-1,3-benzothiazol-6-yl]-2,8-dimethylimidazo[1,2-b]pyridazine] | 100 to 500 |
| Cn1cc2cc(-c3cc(F)c4nc(C5CCNCC5)sc4c3)cc(F)c2n1 [Compound 126, 4-fluoro-6-(7-fluoro-2-methyl-2H-indazol-5-yl)-2-(piperidin-4-yl)-1,3-benzothiazole] | ≤ 100 |
| Cc1cn2nc(-c3cc(F)c4nc(N(C)C5CC(C)(C)NC(C)(C)C5)sc4c3)cc(C)c2n1 [Compound 127, 6-(2,8-dimethylimidazo[1,2-b]pyridazin-6-yl)-4-fluoro-N-methyl-N-(2,2,6,6-tetramethylpiperidin-4-yl)-1,3-benzothiazol-2-amine] | ≤ 100 |
| CN(c1nc2ccc(-c3cc(F)c4nn(C)cc4c3)nc2s1)C1CC(C)(C)NC(C)(C)C1 [Compound 128, 5-(7-fluoro-2-methyl-2H-indazol-5-yl)-N-methyl-N-(2,2,6,6-tetramethylpiperidin-4-yl)[1,3]thiazolo[5,4-b]pyridin-2-amine] | 100 to 500 |

| SMILES | IC50 [nM] |
| --- | --- |
| Cc1cn2cc(-c3ccc4nc(N(C)C5CC(C)(C)NC(C)(C)C5)sc4n3)ccc2n1 [Compound 129, N-methyl-5-(2-methylimidazo[1,2-a]pyridin-6-yl)-N-(2,2,6,6-tetramethylpiperidin-4-yl)[1,3]thiazolo[5,4-b]pyridin-2-amine] | 500 to 1000 |
| CN(c1nc2ncc(-c3ccc(-c4cn[nH]c4)cc3O)nc2s1)C1CC(C)(C)NC(C)(C)C1 [Compound 130, 2-{2-[methyl(2,2,6,6-tetramethylpiperidin-4-yl)amino][1,3]thiazolo[4,5-b]pyrazin-6-yl}-5-(1H-pyrazol-4-yl)phenol] | ≤ 100 |
| Cc1cc(-c2cnc3nc(N(C)C4CC(C)(C)NC(C)(C)C4)sc3n2)cc2cn(C)nc12 [Compound 131, 6-(2,7-dimethyl-2H-indazol-5-yl)-N-methyl-N-(2,2,6,6-tetramethylpiperidin-4-yl)[1,3]thiazolo[4,5-b]pyrazin-2-amine] | ≤ 100 |
| Cc1cn2nc(-c3cc(F)c4nc(N5CC(C)NC(C)C5)sc4c3)cc(C)c2n1 (stereo not shown) [Compound 132, 6-[2-(3,5-dimethylpiperazin-1-yl)-4-fluoro-1,3-benzothiazol-6-yl]-2,8-dimethylimidazo[1,2-b]pyridazine] | ≤ 100 |
| Cc1cn2nc(-c3cc(F)c4nc(OC5CC(C)(C)NC(C)(C)C5)sc4c3)cc(C)c2n1 [Compound 133, 6-{4-fluoro-2-[(2,2,6,6-tetramethylpiperidin-4-yl)oxy]-1,3-benzothiazol-6-yl}-2,8-dimethylimidazo[1,2-b]pyridazine] | ≤ 100 |
| Cc1cc(-c2cc(O)c3nc(C4CCNCC4)sc3c2)cc2cn(C)nc12 [Compound 134, 6-(2,7-dimethyl-2H-indazol-5-yl)-2-(piperidin-4-yl)-1,3-benzothiazol-4-ol] | 100 to 500 |
| Cc1cn2nc(-c3cc(F)c4nc(OC5CC(C)NC(C)C5)sc4c3)cc(C)c2n1 (stereo not shown) [Compound 135, 6-{2-[(2,6-dimethylpiperidin-4-yl)oxy]-4-fluoro-1,3-benzothiazol-6-yl}-2,8-dimethylimidazo[1,2-b]pyridazine] | ≤ 100 |
| Cc1nc2ccc(-c3cc4sc(N(C)C5CC(C)(C)NC(C)(C)C5)nc4cn3)cn2n1 [Compound 136, N-methyl-6-(2-methyl[1,2,4]triazolo[1,5-a]pyridin-6-yl)-N-(2,2,6,6-tetramethylpiperidin-4-yl)[1,3]thiazolo[4,5-c]pyridin-2-amine] | 100 to 500 |
| CN(c1nc2cnc(-c3ccc(-c4cn[nH]c4)cc3O)cc2s1)C1CC(C)(C)NC(C)(C)C1 [Compound 137, 2-{2-[methyl(2,2,6,6-tetramethylpiperidin-4-yl)amino][1,3]thiazolo[4,5-c]pyridin-6-yl}-5-(1H-pyrazol-4-yl)phenol] | 3000 to 9000 |
| Cc1cn2cc(-c3ccc4nc(N(C)C5CC(C)(C)NC(C)(C)C5)sc4c3)cc(C#N)c2n1 [Compound 138, 2-methyl-6-{2-[methyl(2,2,6,6-tetramethylpiperidin-4-yl)amino]-1,3-benzothiazol-6-yl}imidazo[1,2-a]pyridine-8-carbonitrile] | ≤ 100 |
| Cc1cn2nc(-c3ccc4nc(C5CCNCC5)sc4c3)cc(C)c2n1 [Compound 139, 2,8-dimethyl-6-[2-(piperidin-4-yl)-1,3-benzothiazol-6-yl]imidazo[1,2-b]pyridazine] | ≤ 100 |
| CN(c1nc2ncc(-c3cc(C#N)c4nn(C)cc4c3)nc2s1)C1CC(C)(C)NC(C)(C)C1 [Compound 140, 2-methyl-5-{2-[methyl(2,2,6,6-tetramethylpiperidin-4-yl)amino][1,3]thiazolo[4,5-b]pyrazin-6-yl)-2H-indazole-7-carbonitrile] | ≤ 100 |
| Cc1cn2nc(-c3cnc4nc(N(C)C5CC(C)(C)NC(C)(C)C5)sc4n3)ccc2n1 [Compound 141, N-methyl-6-(2-methylimidazo[1,2-b]pyridazin-6-yl)-N-(2,2,6,6-tetramethylpiperidin-4-yl)[1,3]thiazolo[4,5-b]pyrazin-2-amine] | ≤ 100 |
| CN(c1nc2cnc(-c3ccc(-c4cn[nH]c4)cc3O)nc2s1)C1CC(C)(C)NC(C)(C)C1 [Compound 142, 2-{2-[methyl(2,2,6,6-tetramethylpiperidin-4-yl)amino][1,3]thiazolo[5,4-d]pyrimidin-5-yl}-5-(1H-pyrazol-4-yl)phenol] | 100 to 500 |
| Cc1cn2nc(-c3cc(F)c4nc(N5CCC(O)CC5)sc4c3)cc(C)c2n1 [Compound 143, 1-[6-(2,8-dimethylimidazo[1,2-b]pyridazin-6-yl)-4-fluoro-1,3-benzothiazol-2-yl]piperidin-4-ol] | 100 to 500 |
| Cc1cn2nc(-c3cc(F)c4nc(C5CCN[C@H](C)C5)sc4c3)ccc2n1 (stereo partly drawn) [Compound 144, 6-{4-fluoro-2-[(2R)-2-methylpiperidin-4-yl]-1,3-benzothiazol-6-yl}-2-methylimidazo[1,2-b]pyridazine] | ≤ 100 |
| COc1cc(-c2cc(F)c3nc(C4=CCNCC4)sc3c2)nn2cc(C)nc12 [Compound 145, 6-[4-fluoro-2-(1,2,3,6-tetrahydropyridin-4-yl)-1,3-benzothiazol-6-yl]-8-methoxy-2-methylimidazo[1,2-b]pyridazine] | ≤ 100 |
